Laboratory results: patent US20160022751A1, “NOVEL COMPOSITION FOR TREATING ALZHEIMER'S DISEASE AND IMPROVING COGNITIVE FUNCTION OF ALZHEIMER'S PATIENTS” (GANGNEUNG-WONJU NATIONAL UNIVERSITY INDUSTRY ACADEMY …, priority 2014, published 2016)

What was measured:
ChAT = ChAT expression in N2a cells with or without Trk inhibitor K252a; format: cell-based, mouse; conditions: K252a 50 nM, ginsenoside 5 μg/mL, 48 h (FIG. 12)
Excerpt: Since NGF-Trk signal pathway upregulates ChAT and VAChT, it is important to know whether ginsenosides Rd and Re regulate Trk activity directly or at least indirectly. Therefore, the inventor investigated whether the expression of ChAT and VAChT was blocked by treating K252a, an inhibitor against protein kinase C (PKC) and Trk together with ginsenoside Rd or Re, in order to determine more closely whether the expression of cholinergic surface markers and the differentiation of neurons by the treatment of ginsenosides Rd and Re are caused whereby they act NGF-TrkA pathway directly. Particularly, N2a cells were treated with or without K252a (50 nM) in the presence of NGF (100 ng/mL), Re (5 μg/mL) or Rd (5 μg/mL) for 48 h. Total RNA and protein lysates were isolated as described in the Example 4-1 (FIG. 12). […] In addition, the present inventor performed quantitative RT-PCR in order to verify whether the treatment of ginsenosides Rd and Re affect the expression of NGF and NGFR in N2a cells.

Akt = Akt phosphorylation in N2a cells (western blot); format: cell-based, mouse; conditions: compared with NGF (FIG. 10)
Excerpt: The cholinergic marker ChAT and VAChT are known activate the ERK and Akt lower level path for cholinergic gene expression (Williams et al., Neurosci. Lett., 413: 110-114, 2007; Madziar et al., J. Neurochem., 107: 1284-1293, 2007) by controlling the NGF-TrkA signaling pathway. Thus, the present inventor investigated whether ginsenosides Rd and Re regulate activity of ERK and Akt in N2a cells using through western blot analysis. Specifically, N2a cells were lysed in 1% radioimmunoprecipitation assay (RIPA) buffer containing protease and phosphatase inhibitors (Roche, Mannheim, Germany) and whole cell lysates were separated by 10% sodium dodecyl sulfate polyacrylamide gel electrophoresis (SDS-PAGE). After electrophoresis, proteins were transferred onto polyvinylidene fluoride (PVDF) membranes and the membranes were blocked with 5% skim milk in Tris-buffered saline solution containing 0.1% Tween-20. The membrane was then immunoblotted with primary antibodies, anti-phospho-Akt, anti-phospho-extracellular signal-regulated protein kinase (ERK), anti-ChAT and anti-f3-actin (Santa Cruz Biotechnology, Santa Cruz, USA), and this was followed by incubation with horseradish peroxidase-conjugated anti-rabbit or anti-mouse secondary antibodies (Stressgen, USA). Blots were developed using an enhanced chemiluminescence (ECL) solution (Thermo, USA).

SRA = assay: In vivo SRA protein expression in brain tissues (western blot); conditions: mice administrated with Rg3 (FIG. 24B)
Excerpt: (§1) HMO6 cells were lysed in 1% RIPA buffer containing protease and phosphatase inhibitors (Roche, Mannheim, Germany) and whole-cell lysates were separated on 10% sodium dodecyl sulfate-polyacrylamide gel electrophoresis. After electrophoresis, the proteins were transferred to polyvinylidene fluoride membranes, and the membranes were blocked with 5% skim milk in Tris-buffered saline solution containing 0.1% Tween-20. The membranes were then immunoblotted with primary antibodies, anti-phospho-p38, anti-p38, anti-phospho-ERK, anti-ERK, and anti-f3-actin (Santa Cruz Biotechnology, USA), followed by incubation with horseradish peroxidase-conjugated anti-rabbit or anti-mouse secondary antibodies (Stressgen, USA). Blots were developed using an enhanced chemiluminescent solution (Thermo, USA).
The present inventor investigated whether ginsenoside Rg3 translocated to brain tissues contributes to the uptake and degradation of Aβ42 in order to determine whether in vitro experimental results described in the Example 5 can be applied to in vivo condition in the same manner. Specifically, the expression level of SRA and SRB gene within brain tissues of mice administrated with Rg3 was determined using the RT-PCR analysis described in the Example 5-4 (FIG. 24A) and the western blot analysis described in the Example 5-6 (FIG. 24B). […]

Aβ42 = assay: Morris water maze test in Aβ42-infused animals; format: in vivo; conditions: Aβ42 rats administered Rg3 (FIG. 25)
Procedure: Male BALB/c mice (10 weeks old) were purchased from Samtaco (Korea), and were adapted to laboratory conditions (temperature: 20±2° C., relative humidity: 50%, light/dark cycle: 12 h) for 1 week. Five-week-old male Sprague-Dawley rats were obtained from Daehan-Biolink (Korea) for learning and memory testing. The animals (n=5/group) were maintained at a constant temperature (23±2° C.), relative humidity, 55±10%, and 12-h light/dark cycle. The animals were fed a standard rodent chow and purified water ad libitum. Lyophilized Aβ42 (0.5 mg, Bachem Torrance, USA) was resuspended in PBS (pH 7.4) by shaking for 7 days at room temperature to prepare the fibrillar-aggregated Aβ42 (fAβ42). At 10 weeks of age, mice were anesthetized, and 1 μl fAβ42 (350 μM stock concentration) was stereotaxically injected unilaterally into the parietal cortex (anterior 1.7 mm, lateral 1 mm, and ventral 1 mm to the bregma above the hippocampus within 1 min) (Mohajeri et al., J. Biol. Chem., 277: 35460-35465, 2002)
The present inventor performed learning and memory tests using rats in order to investigate whether Rg3 can ameliorate symptoms of Alzheimer's model animals in deed. […] The latency time of stay in the light room from lights-on was recorded following an electric shock (1 mA for 2 s) in the dark compartment. […] The mean time spent to escape onto the platform was recorded.

p38 = p38 phosphorylation in HMO6 cells (western blot); format: cell-based, human; conditions: Rg3 5 μg/ml, western blot (FIG. 18)
Procedure: FIG. 18 is a photograph showing a result of western blot analysis for confirming the degree of phosphorylation of ERK (extracellular-regulated kinase) and p38, according to an embodiment of the present invention. Depending on the presence of Rg3, the levels of phospho-ERK and phospho-p38 protein were investigated by immune-blotting. HMO6 cells were treated with Rg3 (5 μg/ml) after plated on 60 mm cell culture plates and western blot analysis was performed after the cells were placed in phenol red negative/sere-free DMEM medium for 1 h. The western blot analysis was carried out three times independently.
as §1

Q: What does the source list for `CC(C)=CCC[C@](C)(O[C@@H]1O[C@H](CO)[C@@H](O)[C@H](O)[C@H]1O)[C@H]1CC[C@]2(C)[C@@H]1[C@H](O)C[C@@H]1[C@@]3(C)CC[C@H](O[C@@H]4O[C@H](CO)[C@@H](O)[C@H](O)[C@H]4O[C@@H]4O[C@H](CO)[C@@H](O)[C@H](O)[C@H]4O)C(C)(C)[C@@H]3CC[C@]12C` [ginsenoside Rd]?
A: ChAT expression on co-treatment with K252a compared with single treatment (ChAT): inhibited; Akt activation (phosphorylation) (Akt): could activate ERK and Akt with phosphorylation as much as NGF

Q: What does the source list for `CC(C)=CCC[C@](C)(O[C@@H]1O[C@H](CO)[C@@H](O)[C@H](O)[C@H]1O)[C@H]1CC[C@]2(C)[C@@H]1[C@H](O)C[C@@H]1[C@@]3(C)CC[C@H](O)C(C)(C)[C@@H]3[C@@H](O[C@@H]3O[C@H](CO)[C@@H](O)[C@H](O)[C@H]3O[C@@H]3O[C@@H](C)[C@H](O)[C@@H](O)[C@H]3O)C[C@]12C` [ginsenoside Re]?
A: ChAT expression on co-treatment with K252a compared with single treatment (ChAT): inhibited; Akt activation (phosphorylation) (Akt): could activate ERK and Akt with phosphorylation as much as NGF

Q: With `CC(C)=CCC[C@](C)(O)[C@H]1CC[C@]2(C)[C@@H]1[C@H](O)C[C@@H]1[C@@]3(C)CC[C@H](O[C@@H]4O[C@H](CO)[C@@H](O)[C@H](O)[C@H]4O[C@@H]4O[C@H](CO)[C@@H](O)[C@H](O)[C@H]4O)C(C)(C)[C@@H]3CC[C@]12C` [ginsenoside Rg3] as the molecule, how does the “expression of SRA protein in brain tissues” value (SRA) read?
A: increased

Q: And the “learning and memory functions, Morris water-maze” value (Aβ42)?
A: maintained learning and memory functions at 4-5 weeks

Q: And the “phosphorylation of p38” value (p38)?
A: promoted the phosphorylation
